For experiment [1], the target named is T1, WRN (Homo sapiens, UniProt Q14191).
T1 construct: A His-tagged construct of WRN (AA S2-S1235) was produced and used for the ATPase assay; His; made in house; host or cells: Sf9 insect cells (baculovirus, pFastBac1)
Briefly: WRN ATPase activity assay (ADP-Glo). Type of experiment: biochemical. As to conditions: 1-hr pre-incubation with enzyme; 100 μM ATP, 25 nM forked dsDNA, 1 nM WRN; geometric mean of at least 2 replicates. As to the method: Compounds of the Examples were tested for WRN ATPase activity. WRN ATPase activity catalyzes ATP hydrolysis to produce ADP and phosphate. DNA encoding the target protein, 6×HIS-TEV-WRN-517-945, was produced, cloned and transfected as detailed in Example D. The amount of ADP produced was measured using ADP-Glo™ Kinase Assay kit from Promega Corporation in a Greiner white regular volume 384 wells assay plate (Greiner #781075). Data was normalized to a standard curve generated using various ADP concentrations and the corresponding luminescent signal intensities at each concentration. The assay conditions were optimized for enzyme concentration (WRN), substrate concentrations (ATP & dsDNA), and the linearity of the ATPase reaction, in the following assay buffer: 50 mM Tris-HCl, pH-7.5, 2 mM MgCl2, 50 mM NaCl, 1 mM EGTA, 0.01% P-20, 0.05% BSA, and 2 mM DTT prepared with nuclease free water.
A serial dilution (1:3 scheme) of the compounds were prepared in neat DMSO, with 100 nL of the compounds dispensed in the 384 wells assay plate. An 1-hr pre-incubation of the compounds with enzyme was included. A His-tagged construct of WRN (AA S2-S1235) was produced and used for the ATPase assay. Maximum inhibition control wells were set up with the addition of only assay buffer, and no inhibition control wells were set up with neat DMSO without test compounds. The reaction was initiated by addition of 5 μL substrate mix (200 μM ultrapure ATP, and 50 nM dsDNA prepared in assay buffer) and incubated at 25° C. for 35 min. A forked dsDNA oligomer substrate was prepared by annealing equal amounts of oligo GPat-1 ([BHQ2][…]) and oligo GPat-2 ([…][TAM]) and was used as dsDNA substrate for WRN ATPase assay. A typical ATPase reaction consists of 25 nM forked dsDNA, 100 μM ATP, and 1 nM WRN prepared in assay buffer. The WRN ATPase reaction was stopped by the addition of 5 μL of ADP-Glo Reagent from ADP-Glo™ Kinase Assay kit and incubated for 40 min to deplete the unreacted ATP. Afterwards, 5 μL of Kinase Detection Reagent from the ADP-Glo™ Kinase Assay kit was added and incubated for 1 hr for the development of luminescence signal.
Luminesce signals were measured on BMG PHERAstar FSX using luminescence protocol. Data analysis was carried out using Genedata software following % of control normalization. Fitting parameters include dose response IC50, Hill slope (n), maximum inhibition (S∞), and minimum inhibition (S0). The reported IC50 values for compounds in this invention are the geometric means of at least 2 independent replicates.
On the technique in general: ADP-Glo turns the ADP formed in a reaction into a luminescent signal.

For experiment [2], the target named is T1, WRN. As to the kind of experiment: WRN Helicase activity assay (fluorescence DNA unwinding). Type of experiment: biochemical. Particulars: 1-hr pre-incubation with enzyme; 100 μM ATP, 25 nM forked dsDNA, 1 nM WRN; geometric mean of at least 2 replicates. The protocol:
Compounds of the examples were tested for WRN helicase activity. DNA encoding the target protein, 6×HIS-TEV-WRN-517-945, was produced, cloned and transfected as detailed in Example D. To determine the inhibitory properties of the compounds, a 384 wells plate-based Helicase assay was set up to measure the extent of DNA unwinding (Helicase) activity of WRN. The WRN Helicase assay was designed to measure increase in fluorescence signal using a fluorescence based, donor-quencher paired forked dsDNA oligomer substrate (custom synthesis from Sigma-Aldrich) prepared by annealing equal amounts of oligo GPat-1 ([BHQ2][…]) and oligo GPat-2 ([…][TAM]). Continuous measurement of fluorescent signal was used to optimize the buffer conditions, concentration of enzyme (WRN), concentration of substrates (ATP & dsDNA), and the linearity of the Helicase reaction. All solutions were prepared in the following assay buffer: 50 mM Tris-HCl, pH-7.5, 2 mM MgCl2, 50 mM NaCl, 1 mM EGTA, 0.01% P-20, 0.05% BSA, and 2 mM DTT prepared with nuclease free water.
A serial dilution (1:3 scheme) of the compounds was prepared in neat DMSO and 100 nL of the compounds was dispensed in the Greiner black low volume (Greiner #784076) 384 wells assay plate. An 1-hr pre-incubation of the compounds with enzyme was included. A His-tagged construct of WRN (AA S2-S1235) was produced and used for the ATPase assay. Maximum inhibition control wells were set up with the addition of only assay buffer, and no inhibition control wells were set up with neat DMSO without test compounds. The reaction was initiated by addition of 5 μL substrate mix (200 μM ultrapure ATP, and 50 nM dsDNA prepared in assay buffer) and incubated at 25° C. for 35 min. A typical Helicase reaction consists of 25 nM forked dsDNA, 100 μM ATP, and 1 nM WRN prepared in assay buffer. The WRN Helicase reaction was quenched by the addition of 5 μL ‘STOP’ solution containing 100 mM EDTA (final EDTA concentration 33.33 mM) prepared in assay buffer. The plates were read on BMG PHERAstar FSX using 540/590 module to measure an increase of fluorescence. Data analysis was carried out using the Genedata software following % of control normalization. Fitting parameters include dose response IC50, Hill slope (n), maximum inhibition (S∞), and minimum inhibition (S0). The reported IC50 values for compounds in this invention are the geometric means of at least 2 independent replicates.

The term IC50 denotes the concentration that inhibits the measured activity by half.

T1 sequence (Q14191 2-1235): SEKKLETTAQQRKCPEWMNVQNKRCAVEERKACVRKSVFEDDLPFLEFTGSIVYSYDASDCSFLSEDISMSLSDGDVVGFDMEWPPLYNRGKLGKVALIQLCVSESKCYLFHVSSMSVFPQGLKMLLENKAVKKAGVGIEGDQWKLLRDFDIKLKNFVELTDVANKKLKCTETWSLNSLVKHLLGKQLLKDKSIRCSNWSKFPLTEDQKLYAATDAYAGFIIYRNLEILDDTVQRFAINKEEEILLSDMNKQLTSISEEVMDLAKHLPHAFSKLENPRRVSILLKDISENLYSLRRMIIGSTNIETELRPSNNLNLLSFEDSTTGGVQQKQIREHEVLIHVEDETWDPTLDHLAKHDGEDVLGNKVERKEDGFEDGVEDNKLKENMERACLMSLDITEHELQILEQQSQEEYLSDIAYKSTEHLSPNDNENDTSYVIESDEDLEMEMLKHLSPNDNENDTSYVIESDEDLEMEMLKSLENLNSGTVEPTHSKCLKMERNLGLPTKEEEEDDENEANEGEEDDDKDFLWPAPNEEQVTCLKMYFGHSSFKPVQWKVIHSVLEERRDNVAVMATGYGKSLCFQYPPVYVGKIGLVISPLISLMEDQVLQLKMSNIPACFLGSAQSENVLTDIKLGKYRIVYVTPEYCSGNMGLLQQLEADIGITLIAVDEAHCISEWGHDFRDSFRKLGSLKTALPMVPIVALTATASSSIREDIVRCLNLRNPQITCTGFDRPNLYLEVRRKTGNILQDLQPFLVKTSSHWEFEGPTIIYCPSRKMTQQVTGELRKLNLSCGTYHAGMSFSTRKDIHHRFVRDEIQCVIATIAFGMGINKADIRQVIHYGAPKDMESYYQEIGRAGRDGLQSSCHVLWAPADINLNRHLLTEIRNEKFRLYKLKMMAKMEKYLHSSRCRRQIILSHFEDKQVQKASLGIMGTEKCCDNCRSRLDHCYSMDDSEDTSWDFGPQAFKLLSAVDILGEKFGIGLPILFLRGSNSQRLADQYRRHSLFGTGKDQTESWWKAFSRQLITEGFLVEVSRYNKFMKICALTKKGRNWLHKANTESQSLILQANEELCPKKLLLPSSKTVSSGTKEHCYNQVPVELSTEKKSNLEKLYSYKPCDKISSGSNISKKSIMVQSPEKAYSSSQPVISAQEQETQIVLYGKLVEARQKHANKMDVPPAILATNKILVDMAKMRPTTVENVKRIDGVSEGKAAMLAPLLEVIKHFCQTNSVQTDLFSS

Turning to `C=CC(=O)Nc1ccccc1-c1c(CC)nc2n(CC(=O)Nc3ccc(F)cc3)c3ccccc3n2c1=O` [Example 1, N-(2-(2-Ethyl-10-(2-((4-fluorophenyl)amino)-2-oxoethyl)-4-oxo-4,10-dihydrobenzo[4,5]imidazo[1,2-a]pyrimidin-3-yl)phenyl)acrylamide], the IC50 at WRN [1] and at WRN [2] was below 0.1 µM each time.

As for `C=CC(=O)Nc1ccccc1-c1c(CC)nc2n(CC(=O)Nc3ccccc3)c3ccccc3n2c1=O` [Example 2, N-(2-(2-Ethyl-4-oxo-10-(2-oxo-2-(phenylamino)ethyl)-4,10-dihydrobenzo[4,5]imidazo[1,2-a]pyrimidin-3-yl)phenyl)acrylamide], the IC50 against WRN [1] and on WRN [2] was below 0.1 µM in each case.

Take `C=CC(=O)Nc1ccccc1-c1c(CC)nc2n(CC(=O)Nc3ccc(C(F)(F)F)cc3)c3ccccc3n2c1=O` [Example 3, N-(2-(2-Ethyl-4-oxo-10-(2-oxo-2-((4-(trifluoromethyl)phenyl)amino)ethyl)-4,10-dihydrobenzo[4,5]imidazo[1,2-a]pyrimidin-3-yl)phenyl)acrylamide]: the IC50 on WRN [1] and against WRN [2] was below 0.1 µM throughout.

For the compound `C=CC(=O)Nc1ccccc1-c1c(CC)nc2n(CC(=O)Nc3ccc(C(F)(F)F)cc3Cl)c3ccccc3n2c1=O` [Example 4, N-(2-(10-(2-((2-Chloro-4-(trifluoromethyl)phenyl)amino)-2-oxoethyl)-2-ethyl-4-oxo-4,10-dihydrobenzo[4,5]imidazo[1,2-a]pyrimidin-3-yl)phenyl)acrylamide], the IC50 against WRN [1] and on WRN [2] was below 0.1 µM each time.

Consider `C=CC(=O)Nc1ccccc1-c1c(CC)nc2n(CC(=O)Nc3ccc(CC)cc3)c3ccccc3n2c1=O` [Example 5, N-(2-(2-Ethyl-10-(2-((4-ethylphenyl)amino)-2-oxoethyl)-4-oxo-4,10-dihydrobenzo[4,5]imidazo[1,2-a]pyrimidin-3-yl)phenyl)acrylamide], for which the IC50 on WRN [1] and against WRN [2] was below 0.1 µM throughout.

As to `C=CC(=O)Nc1ccccc1-c1c(CC)nc2n(CC(=O)Nc3ccc(F)cc3Cl)c3ccccc3n2c1=O` [Example 6, N-(2-(10-(2-((2-Chloro-4-fluorophenyl)amino)-2-oxoethyl)-2-ethyl-4-oxo-4,10-dihydrobenzo[4,5]imidazo[1,2-a]pyrimidin-3-yl)phenyl)acrylamide], the IC50 on WRN [1] and against WRN [2] was below 0.1 µM in each case.

Turning to `C=CC(=O)Nc1ccccc1-c1c(CC)nc2n(CC(=O)Nc3cccc(C(F)(F)F)c3)c3ccccc3n2c1=O` [Example 7, N-(2-(2-Ethyl-4-oxo-10-(2-oxo-2-((3-(trifluoromethyl)phenyl)amino)ethyl)-4,10-dihydrobenzo[4,5]imidazo[1,2-a]pyrimidin-3-yl)phenyl)acrylamide], the half-maximal inhibitory concentration (IC50) against WRN [1] and on WRN [2] was 0.1 to 0.5 µM in each case.

Regarding `C=CC(=O)Nc1ccccc1-c1c(CC)nc2n(CC(=O)Nc3ccc(F)c(F)c3)c3ccccc3n2c1=O` [Example 8, N-(2-(10-(2-((3,4-Difluorophenyl)amino)-2-oxoethyl)-2-ethyl-4-oxo-4,10-dihydrobenzo[4,5]imidazo[1,2-a]pyrimidin-3-yl)phenyl)acrylamide], the IC50 against WRN [1] and on WRN [2] was below 0.1 µM each time.

`C=CC(=O)Nc1ccccc1-c1c(CC)nc2n(CC(=O)Nc3ccc(F)cc3C)c3ccccc3n2c1=O` [Example 9, N-(2-(2-Ethyl-10-(2-((4-fluoro-2-methylphenyl)amino)-2-oxoethyl)-4-oxo-4,10-dihydrobenzo[4,5]imidazo[1,2-a]pyrimidin-3-yl)phenyl)acrylamide]: the IC50 on WRN [1] and on WRN [2] was below 0.1 µM each time.

On to `C=CC(=O)Nc1ccccc1-c1c(CC)nc2n(CC(=O)NC3CCCCC3)c3ccccc3n2c1=O` [Example 10, N-(2-(10-(2-(Cyclohexylamino)-2-oxoethyl)-2-ethyl-4-oxo-4,10-dihydrobenzo[4,5]imidazo[1,2-a]pyrimidin-3-yl)phenyl)acrylamide], for which the 50% inhibitory concentration (IC50) against WRN [1] and at WRN [2] was 1 to 5 µM in each case.

For the compound `C=CC(=O)Nc1ccc(C(=O)OC)cc1-c1c(CC)nc2n(CC(=O)Nc3ccc(F)cc3)c3ccccc3n2c1=O` [Example 11, Methyl 4-acrylamido-3-(2-ethyl-10-(2-((4-fluorophenyl)amino)-2-oxoethyl)-4-oxo-4,10-dihydrobenzo[4,5]imidazo[1,2-a]pyrimidin-3-yl)benzoate], the IC50 against WRN [1] and against WRN [2] was below 0.1 µM throughout.

As to `C=CC(=O)Nc1ccc(C(=O)NCCO)cc1-c1c(CC)nc2n(CC(=O)Nc3ccc(F)cc3)c3ccccc3n2c1=O` [Example 12, 4-Acrylamido-3-(2-ethyl-10-(2-((4-fluorophenyl)amino)-2-oxoethyl)-4-oxo-4,10-dihydrobenzo[4,5]imidazo[1,2-a]pyrimidin-3-yl)-N-(2-hydroxyethyl) benzamide], the IC50 at WRN [1] and against WRN [2] was 0.1 to 0.5 µM in each case.

For `C=CC(=O)Nc1ccc(C(=O)NCCOC)cc1-c1c(CC)nc2n(CC(=O)Nc3ccc(F)cc3)c3ccccc3n2c1=O` [Example 13, 4-Acrylamido-3-(2-ethyl-10-(2-((4-fluorophenyl)amino)-2-oxoethyl)-4-oxo-4,10-dihydrobenzo[4,5]imidazo[1,2-a]pyrimidin-3-yl)-N-(2-methoxyethyl) benzamide], the concentration for half-maximal inhibition (IC50) against WRN [1] and at WRN [2] was 0.1 to 0.5 µM in each case.

As for `C=CC(=O)Nc1ccc(C(=O)N2CC3CC3(O)C2)cc1-c1c(CC)nc2n(CC(=O)Nc3ccc(F)cc3)c3ccccc3n2c1=O` (stereo not drawn) [Example 14, N-(2-(2-Ethyl-10-(2-((4-fluorophenyl)amino)-2-oxoethyl)-4-oxo-4,10-dihydrobenzo[4,5]imidazo[1,2-a]pyrimidin-3-yl)-4-(1-hydroxy-3-azabicyclo[3.1.0]hexane-3-carbonyl)phenyl) acrylamide], the IC50 at WRN [1] and at WRN [2] was 0.1 to 0.5 µM throughout.

`C=CC(=O)Nc1cc(C#N)ccc1-c1c(CC)nc2n(CC(=O)Nc3ccc(C(F)(F)F)cc3)c3ccccc3n2c1=O` [Example 15, N-(5-Cyano-2-(2-ethyl-4-oxo-10-(2-oxo-2-((4-(trifluoromethyl)phenyl)amino)ethyl)-4,10-dihydrobenzo[4,5]imidazo[1,2-a]pyrimidin-3-yl)phenyl)acrylamide]: the IC50 against WRN [1] and at WRN [2] was below 0.1 µM in each case.

The record behind these values is patent US20250215006A1, “TRICYCLIC COMPOUNDS AS INHIBITORS OF WRN” (Incyte Corporation, priority 2023, published 2025).
